Laboratory results as given in patent publication US12137691B2, “Method for treating plant seed” (RIJK ZWAAN ZAADTEELT EN ZAADHANDEL B.V., priority 2018, dated 2024).

Legend:
fungal growth = assay: Reducing fungal growth on plant seedlings and plants (general statement); format: in vivo; conditions: general statement in the description, no test details
[1] = test system: Rhizoctonia isolate AU 14/243; assay: In vitro growth inhibition on PDA agar plates with imbedded coated spinach seeds, Rhizoctonia; format: cell-based
Protocol: FIG. 4A is a schematic picture of an with Rhizoctonia-infected agar plate (1) comprising untreated seeds (2) and seeds coated with 500 μg/seed Fe(II)SO4 (3). Plates were inoculated with Rhizoctonia in the center of the plates (4). The growth of Rhizoctonia was measured after 1 day, 2 days, and 4 days post-inoculation (dpi).
(§1) PDA agar plates were prepared in which spinach seeds of the variety Platypus coated with 250 μg Fe(II)SO4 per seed and 1.1 Meq. vitamin C, 500 μg Fe(II)SO4 per seed and 1.1 Meq. vitamin C, or 500 μg Fe(II)SO4 per seed, were imbedded and inoculated with Rhizoctonia isolate AU 14/243 or Fusarium oxysporum isolate MAFF103063.

damping-off [2] = assay: Beetroot seed sown in a field known to suffer from damping-off, healthy seedlings; format: in vivo; conditions: beetroot variety Zeppo, 500 μg Fe(II)SO4 per seed, no vitamin C, 14 and 21 days after sowing
Protocol: FIG. 6 is a graph showing the effect of treatment of seeds of the beetroot variety Zeppo with 500 μg/seed of Fe(II)SO4. The effect is expressed in the number of seedlings that are still alive and healthy 14 and 21 days after sowing.
Seed of the beetroot variety Zeppo was coated with 500 μg/Fe(II)SO4 per seed as described in Example 1, except that no vitamin C was added. The seed was sown in a field known to suffer from damping-off. The number of healthy seedlings was determined 14 days and 21 days after sowing.

[3] = test system: Fusarium oxysporum isolate MAFF103063; assay: In vitro growth inhibition on PDA agar plates with imbedded coated spinach seeds, Fusarium; format: cell-based
Protocol: FIG. 4B is a schematic picture of an with Fusarium-infected agar plate (1) comprising untreated seeds (2) and seeds coated with 500 μg/seed Fe(II)SO4 (3). The growth of Fusarium was measured after 2 days, 4 days, and 7 days post-inoculation (dpi).
as §1

P. irregulare = assay: Cornsalad seed sown in soil inoculated with P. irregulare, healthy seedlings; format: in vivo, Pythium irregulare; conditions: 500 μg Fe(II)SO4 per seed, no vitamin C, 7, 11, 17 and 24 days after sowing
Protocol: (§2) FIG. 7B is a graph showing the effect of hot water treatment of cornsalad seeds, and subsequent treatment with 500 μg/seed of Fe(II)SO4. The effect is expressed in the percentage of seedlings that are still alive and healthy 7, 11, 17 and 24 days after sowing in soil inoculated with P. irregulare.
The experiment was also performed on the cornsalad seed when sown in soil inoculated with P. irregulare, prepared as described in Example 2. The percentage of healthy seedlings was determined 7, 11, 17 and 24 days after sowing.

damping-off [4] = assay: Cornsalad seed sown in soil from a field known to suffer from damping-off, healthy seedlings; format: in vivo; conditions: 500 μg Fe(II)SO4 per seed, no vitamin C, 7, 11, 17 and 24 days after sowing
Protocol: as §2, with “7A” for “7B”, “known to suffer from damping-off.” for “inoculated with P. irregulare.”
Cornsalad seed was coated with 500 μg/Fe(II)SO4 per seed as described in Example 1, except that no vitamin C was added. The seed was sown in soil from a field known to suffer from damping-off. The percentage of healthy seedlings was determined 7, 11, 17 and 24 days after sowing.

[5] = test system: Pythium irregulare isolate 779-2010; assay: Germination of hot water treated spinach seed and survival of seedlings in soil inoculated with Pythium irregulare; format: in vivo; conditions: for effect on the health of the growing plants: coating with only vitamin C (175 or 350 μg per seed)
Protocol: A solution of an iron salt, such as for instance Fe(II)SO4, and vitamin C in water is prepared by stirring of the chemicals until a clear, colorless solution is obtained.
A rotary coater is charged with seeds and the iron salt with vitamin C solution is added to the seeds via a spinning disk.
The seeds are dried after coating at 25° C./35 RH until the moisture in the seed is equal to the moisture of the seed before treatment with the iron salt solution.
The effect of the iron salt solution prepared in Example 1 on both germination and survival against Pythium is investigated on hot water treated spinach seeds of the variety Mandril. A suitable protocol for the hot water treatment is described in Extension Factsheet Ohio State University; Sally A. Miller and Melanie L Lewis Ivey; “Hot Water Treatment of Vegetable Seeds to Eradicate Bacterial Plant Pathogens in Organic Production Systems”.
The hot water treated spinach seeds were coated with an Fe(II)SO4 coating supplemented with vitamin C. Two different concentrations of Fe(II)SO4 and vitamin C in the coating solution were used: 1 μg Fe(II)SO4 per seed and 1.1 molar equivalents (Meq.) vitamin C, and 250 μg Fe(II)SO4 per seed and 1.1 Meq. vitamin C. As a control, hot water treated seeds without coating and untreated seeds were used.
Seeds were sown in trays. Germination of the seeds was assessed in trays without any inoculum. The effect of the coating on the survival of seedlings was assessed in trays inoculated with Pythium irregulare isolate 779-2010.
(§3) Trays without the inoculum were prepared by mixing+/−10 L of sowing soil with 1 L of tap water in white trays. In total, 117 sowing holes were made in the trays with a press. To prevent any interaction between treatments, only 1 treatment per tray was sown. For each treatment, 3 replicates of 117 seeds were sown. The seeds were topped with two cups (diameter 12 cm) of sowing soil containing 5 grams of inoculum media. Trays were placed in a controlled climate cell at 20° C., LID->14/10 and a RH of 60%. The number of germinated seeds was counted at 7 days, and the amount of surviving seedlings was counted 7 and 14 days after sowing and inoculation. Trays were physically separated from trays containing Pythium inoculum, to prevent cross-contamination.
The inoculum was prepared by growing Pythium irregulare on fresh V8 plates for 3 days at 28° C. After incubation, the spores and mycelium were harvested by adding 20 ml of sterile PBS to the plate and scraping it with a sterile spatula. This inoculum was added to the sowing soil.
as §3, with “with” for “without the”, “treatment 3,” for “treatment, 3”, “(mixed thoroughly in a bucket before topping off).” for “media.”, “inoculation.” for “inoculation. Trays were physically separated from trays containing Pythium inoculum, to prevent cross-contamination.”
The experiment of Example 2 was repeated with the following modifications:
the spinach seed used are of the varieties Platypus and Meerkat […]

[6] = 4 days post inoculation, 250 μg Fe(II)SO4 per seed and 1.1 Meq. vitamin C, or 500 μg Fe(II)SO4 per seed alone
[7] = Platypus seed, 250 μg Fe(II)SO4 per seed and 1.1 Meq. vitamin C, or 500 μg Fe(II)SO4 per seed alone

O=S(=O)([O-])[O-].O=S(=O)([O-])[O-].[Fe+3].[NH4+] [iron(III)ammonium sulfate]
effects in reducing fungal growth on the plant seedlings and plants (fungal growth): good effects

[Br-].[Br-].[Fe+2] [Iron(II)bromide]
effects in reducing fungal growth on the plant seedlings and plants (fungal growth): good effects

[Cl][Fe]([Cl])[Cl] [iron(III)chloride]
effects in reducing fungal growth on the plant seedlings and plants (fungal growth): good effects

[Cl][Fe][Cl] [iron(II)chloride]
effects in reducing fungal growth on the plant seedlings and plants (fungal growth): good effects

[Br-].[Br-].[Br-].[Fe+3] [iron(III)bromide]
effects in reducing fungal growth on the plant seedlings and plants (fungal growth): good effects

O=S(=O)([O-])[O-].O=S(=O)([O-])[O-].[Fe+2].[NH4+].[NH4+] [iron(II)ammonium sulfate]
effects in reducing fungal growth on the plant seedlings and plants (fungal growth): good effects

O=S(=O)([O-])[O-].[Fe+2] [Fe(II)SO4, iron(II)sulfate]
effects in reducing fungal growth on the plant seedlings and plants (fungal growth): good effects | growth of the Rhizoctonia isolate over the plate [1, 6]: the isolate covered the whole plate | inhibition of Rhizoctonia growth (weaker when compared to 500 μg Fe(II)SO4 and vitamin C) [1, 7]: Inhibition was also observed | zone of inhibition around the coated seeds, Rhizoctonia ([1]; after 4 days post-inoculation, 500 μg/seed Fe(II)SO4, not around untreated seeds): zone of inhibition (5) is still visible | protection of beetroot against damping-off (healthy seedlings) (damping-off [2]): protects beetroot against damping-off | growth of the Fusarium isolate over the plate [3, 6]: the isolate covered the whole plate | inhibition of Fusarium growth (weaker when compared to 500 μg Fe(II)SO4 and vitamin C) [3, 7]: Inhibition was also observed | zone of inhibition around the coated seeds, Fusarium ([3]; after 7 days post-inoculation, 500 μg/seed Fe(II)SO4, not around untreated seeds): zone of inhibition (5) is still visible | protection of cornsalad against damping-off (healthy seedlings) (P. irregulare): protects cornsalad against damping-off | protection of cornsalad against damping-off (healthy seedlings) (damping-off [4]): protects cornsalad against damping-off | dose-effect response (seedlings alive and healthy 14 days after sowing) ([5]; spinach varieties Finwhale and Mandril, hot water treated, 50, 100, 150, 200 and 250 μg Fe(II)SO4 per seed): linear dose-effect response | doses effective to increase the germination and survival of hot-water treated seed ([5]; spinach varieties Finwhale and Mandril, dose per seed, dose to match untreated seeds depends on variety and/or batch): ≥ 50 µg | effect on the health of the plants ([5]; spinach varieties Platypus and Meerkat, hot water treated, 250 or 500 μg Fe(II)SO4 per seed, with or without 1.1 Meq. vitamin C): positive effect

O=S(=O)([O-])[O-].O=S(=O)([O-])[O-].O=S(=O)([O-])[O-].[Fe+3].[Fe+3] [iron(III)sulfate]
effects in reducing fungal growth on the plant seedlings and plants (fungal growth): good effects

O=C1O[C@H]([C@@H](O)CO)C(O)=C1O [vitamin C, reference compound]
effect on the health of the growing plants ([5]; spinach variety Meerkat, hot water treated): not observed | effect on the health of the growing plants ([5]; spinach variety Platypus, hot water treated): some effect
